Measurements taken from patent US6469209B1, “Acrylate-type fungicide” (Dongbu Hannong Chemical Co., Ltd., priority 1999, dated 2002).
Read-outs that look alike come from different tables or passages of the source.

What was measured:
[1] = test system: Pyricularia oryzae Cavara KJ301 strain; assay type: in vivo; settings: sprayed on rice one day before inoculation
[2] = test system: Rhizoctonia solani AG-1; assay: Protective effect test on rice sheath blight (RSB); assay type: in vivo
[3] = test system: Botrytis cinerea; assay: Protective effect test on cucumber gray mould (CGM); assay type: in vivo
[4] = test system: Phytophthora infestans; assay type: in vivo; settings: sprayed on tomato one day before inoculation
[5] = test system: Puccinia recondita; assay: Protective effect test on wheat leaf rust (WLR); assay type: in vivo
[6] = test system: Erysiphe graminis f. sp. hordei; assay: Protective effect test on barley powdery mildew (BPM); assay type: in vivo
[7] = test system: Pyricularia oryzae Cavara KJ301 strain; assay type: in vivo; settings: 100 ppm, soil irrigation (10 mL) 24 hours before inoculation
[8] = test system: Pyricularia oryzae Cavara KJ301 strain; assay type: in vivo; settings: sprayed one day after inoculation
[9] = test system: Puccinia recondita; assay: Systemic effect test on wheat leaf rust; assay type: in vivo
[10] = test system: Puccinia recondita; settings: in vivo
[11] = test system: Erysiphe graminis f. sp. hordei; settings: in vivo
[12] = test system: Venturia inaequalis; assay: Protective effect test on apple scab (APS); assay type: in vivo; settings: apple seedlings treated one day before inoculation
[13] = test system: Bipolaris maydis; assay: Protective effect test on southern corn leaf blight (CLB); assay type: in vivo; settings: corn treated one day before inoculation
Protocol: A plant pathogen, Bipolaris maydis, was inoculated on the Difco Lima Bean Agar (10 g/L) medium containing 10 g/L dextrose, and incubated at 24° C. with and without fluorescent light for 12 hours each time for 7 days in a growth chamber. After forming spores, the conidiospore was harvested in Tween-20 solution (250 ppm), adjusted at the concentration of 5×10^5 spores/ml and used as inoculum. The southern corn (golden crossbantam 70) for test was grown to be at 4 or 5-leaf stage in a greenhouse. One day after the treating with the agricultural fungicidal compositions, the inoculum was sprayed an young seedlings of the corn, and incubated at 27° C. and 100% relative humidity for 24 hours in a dew chamber to infiltrate the pathogen. The young seedling were incubated at 27° C. and 90% relative humidity for 3 days in a growth chamber to induce the disease. A ratio of diseased areas to total areas of the corn leaves was examined according to the criteria for determining a degree of disease induction.
In the above experiment 2, control value of the compound on the tested pathogens was calculated according to the following mathematical formula 1, and the results were shown in Table 2. For only cucumber damping off, it was examined according to the above-mentioned separate criteria.
Control value(%)=(1—the ratio of diseased area in the treated plant/the ratio of diseased area in the untreated plant)×100

[14] = test system: Colletotrichum lagenarium; assay: Protective effect test on cucumber anthracnose (CUA); assay type: in vivo; settings: cucumber treated one day before inoculation
[15] = test system: Pythium ultimum; assay: Protective effect test on cucumber damping off (CDO); assay type: in vivo; settings: soil irrigation (10 mL), disease index after 7 days
Protocol: The potato mixture was inoculated with a plant pat hogen causing cucumber damping off, Pythium ultimum, incubated at 25° C. for 15 days in a growth chamb e r and used as inoculum. Soil (150 mL) prepared by mixing vermiculite and field soil (1:1) was sterilized and mixed with the potato mixture (1 g) to use it as inoculum. After filling the inoculated soil in the pot (diameter 9 cm), five cucumber seeds (house Baekdadagio® cucumber) were sown in the above pot and irrigated with the agricultural fungicidal compositions (10 mL) prepared at the appropriate concentrations. Seven days after the treating with the agricultural fungicidal compositions, a degree of the disease induction was examined based upon criteria for determining the disease index, and control efficacy was determined according to the above examination. The criteria was listed in the following. Criteria 4: seeds don't germinate due to disease outbreak. 3: a young seedling dies in the middle of emergence. 2: ground surface is narrowed due to disease outbreak. 1: growth is poor due to disease outbreak of partial roots. 0: healthy plant […] For only cucumber damping off, it was examined according to the above-mentioned separate criteria.

[16] = test system: Sphaerotheca fuliginea; assay: Protective effect test on cucumber powdery mildew (CPM); assay type: in vivo; settings: sprayed on cucumber one day before inoculation
Protocol: A plant pathogen, Sphaerotheca fuliginea, was prepared by collecting the diseased leaves of cucumber grown in a vinylhouse, and its spores were suspended in sterilized water. The concentration of the pathogenic spores was adjusted to 10^5 spores/mL and used as inoculum. After a cucumber seed (house ‘Baekdadagi®’ cucumber) was sown in a small pot (diameter 6.5 cm), it was grown in a greenhouse for two weeks and young seedlings with the first true completely open leaf were used for test. After the young seedlings of the cucumber in the small pots were sprayed with agricultural fungicidal compositions prepared at the appropriate concentrations, they were left for 1 day in a greenhouse to dry the fungicidal compositions. The young seedlings of cucumber were inoculated with the prepared pathogenic spores of cucumber powdery mildew by spraying and incubated for 10 days in a green house to induce the disease. A ratio of the diseased areas to total areas of the first true completely open leaves was determined according to the criteria for determining a degree of disease induction. […] For only cucumber damping off, it was examined according to the above-mentioned separate criteria.

[17] = test system: Erysiphe graminis f. sp. hordei; assay: Systemic effect test on barley powdery mildew; assay type: in vivo; settings: soil irrigation (10 mL) 24 hours before inoculation

Compound: CO/N=C(/C(=O)OC)c1ccccc1COc1ccccc1C [F, Kresoxim methyl, reference compound]
- Control value (%) RCB ([1]; 10 ppm): 98%
- Control value (%) RSB ([2]; in vivo): 5%
- Control value (%) CGM ([3]; in vivo): 10%
- Control value (%) TLB ([4]; 10 ppm): 57%
- Control value (%) WLR ([5]; in vivo): 93%
- Control value (%) BPM ([6]; in vivo): 94%
- Control value (%) RCB S.E. (systemic effect) [7]: 0%
- Control value (%) RCB C.E. (curative effect) ([8]; 10 ppm): 39%
- Control value (%) WLB S.E. (systemic effect) ([9]; in vivo): 0%
- Control value (%) WLB C.E. (curative effect) [10]: 0%
- Control value (%) BPM C.E. (curative effect) [11]: 50%

Compound: Mancozeb [L, reference compound]
- Control value (%) APS ([12]; 100 ppm): 82%
- Control value (%) CLB ([13]; 100 ppm): 80%
- Control value (%) CUA ([14]; 100 ppm): 85%

Compound: OCC1=C[C@H](N[C@H]2C[C@H](CO)[C@@H](O[C@@H]3O[C@H](CO)[C@@H](O)[C@H](O)[C@H]3O)[C@H](O)[C@H]2O)[C@H](O)[C@@H](O)[C@@H]1O [B, Validamycin, reference compound]
- Control value (%) RSB ([2]; in vivo): 50%

Compound: CNC(=O)/C(=N/OC)c1c(C)cccc1COc1ccccc1C [The compound of formula 1, N-methyl E-2-((2-methylphenyl)oxymethyl)-6-methylphenylglyoxylamide O-methyl oxime]
- Control value (%) RCB ([1]; 2 ppm): 100%
- Control value (%) RCB ([1]; 10 ppm): 100%
- Control value (%) RSB ([2]; 2 ppm, sprayed on rice one day before inoculation): 21%
- Control value (%) RSB ([2]; 10 ppm, sprayed on rice one day before inoculation): 53%
- Control value (%) CGM ([3]; 2 ppm, sprayed on cucumber one day before inoculation): 30%
- Control value (%) CGM ([3]; 10 ppm, sprayed on cucumber one day before inoculation): 40%
- Control value (%) TLB ([4]; 2 ppm): 79%
- Control value (%) TLB ([4]; 10 ppm): 89%
- Control value (%) WLR ([5]; 2 ppm, sprayed on wheat one day before inoculation): 99%
- Control value (%) WLR ([5]; 10 ppm, sprayed on wheat one day before inoculation): 100%
- Control value (%) BPM ([6]; 2 ppm, sprayed on barley one day before inoculation): 98%
- Control value (%) BPM ([6]; 10 ppm, sprayed on barley one day before inoculation): 100%
- Control value (%) CDO ([15]; 1 ppm): 30%
- Control value (%) CDO ([15]; 10 ppm): 100%
- Control value (%) CDO ([15]; 100 ppm): 100%
- Control value (%) CPM ([16]; 1 ppm): 80%
- Control value (%) CPM ([16]; 10 ppm): 100%
- Control value (%) CPM ([16]; 100 ppm): 100%
- Control value (%) APS ([12]; 1 ppm): 60%
- Control value (%) APS ([12]; 10 ppm): 92%
- Control value (%) APS ([12]; 100 ppm): 100%
- Control value (%) CLB ([13]; 10 ppm): 80%
- Control value (%) CLB ([13]; 100 ppm): 90%
- Control value (%) CUA ([14]; 1 ppm): 80%
- Control value (%) CUA ([14]; 10 ppm): 100%
- Control value (%) CUA ([14]; 100 ppm): 100%
- Control value (%) RCB S.E. (systemic effect) [7]: 56%
- Control value (%) RCB C.E. (curative effect) ([8]; 10 ppm): 84%
- Control value (%) WLB S.E. (systemic effect) ([9]; 2 ppm, soil irrigation (10 mL) 24 hours before inoculation): 43%
- Control value (%) WLB S.E. (systemic effect) ([9]; 10 ppm, soil irrigation (10 mL) 24 hours before inoculation): 100%
- Control value (%) WLB S.E. (systemic effect) ([9]; 100 ppm, soil irrigation (10 mL) 24 hours before inoculation): 100%
- Control value (%) WLB C.E. (curative effect) [10]: 100%
- Control value (%) BPM S.E. (systemic effect) ([17]; 2 ppm): 67%
- Control value (%) BPM S.E. (systemic effect) ([17]; 10 ppm): 80%
- Control value (%) BPM S.E. (systemic effect) ([17]; 100 ppm): 100%
- Control value (%) BPM C.E. (curative effect) [11]: 100%

Compound: COc1ccc(C(=CC(=O)N2CCOCC2)c2ccc(Cl)cc2)cc1OC [D, Dimethomotph, reference compound]
- Control value (%) TLB ([4]; 10 ppm): 80%

Compound: CC12CC1(C)C(=O)N(c1cc(Cl)cc(Cl)c1)C2=O (stereo not shown) [C, Procymidone, reference compound]
- Control value (%) CGM ([3]; in vivo): 40%

Compound: CCCCNC(=O)n1c(NC(=O)OC)nc2ccccc21 [K, Benomyl, reference compound]
- Control value (%) CDO ([15]; 10 ppm): 20%
- Control value (%) CPM ([16]; 10 ppm): 85%
- Control value (%) APS ([12]; 10 ppm): 85%
- Control value (%) CUA ([14]; 10 ppm): 65%

Compound: Cc1cccc2sc3nncn3c12 [A, Tricyclazole]
- Control value (%) RCB ([1]; 50 ppm): 90%
- Control value (%) RCB S.E. (systemic effect) [7]: 87%
- Control value (%) RCB C.E. (curative effect) ([8]; 100 ppm): 0%

Compound: C[Si](Cn1cncn1)(c1ccc(F)cc1)c1ccc(F)cc1 [E, Flusilazole, reference compound]
- Control value (%) WLR ([5]; in vivo): 85%
- Control value (%) BPM ([6]; in vivo): 85%
- Control value (%) WLB C.E. (curative effect) [10]: 97%
- Control value (%) BPM C.E. (curative effect) [11]: 81%
